Measured values published in US20240148709A1, “METHODS OF TREATING EYE PAIN AND EYE DISORDERS” (Aisa Pharma, Inc., priority 2022, published 2024).

System: participants with SSc-RP
Assay: Scleroderma Health Assessment Questionnaire (SHAQ), Phase 2a study Part A
Format: in vivo, human
Settings: cilnidipine 10 mg and/or tadalafil 5 mg arms
Procedure: Part A—double-blind, placebo-controlled, parallel-group, dose selection, will assess the safety and efficacy of two doses of cilnidipine (10 mg and 20 mg), alone and in combination with tadalafil. A total of 36 participants will be randomized to one of six prespecified treatment arms. Refer to FIG. 1 for treatment arms in Part A of the study. Dosing last for 12 (±2) days in which participants will self-administer daily doses of assigned treatment in the morning. Each participant will take one capsule and one tablet to blind the active therapy being received.
The standard, validated, patient reported outcome measures tool for SSc patients, the SHAQ, will be collected at the time points specified in the study schedules (FIG. 2 and FIGS. 3A and 3B) to assess the participant's quality of life. The SHAQ includes a Raynaud's VAS that will also be reported separately.
Results: Patients in the study were administered the Scleroderma Health Assessment Questionnaire (SHAQ) at the time of study entry and during clinic visits following the treatment period. The study is a two-part, parallel arm design, prospective, double-blind, randomized study conducted in Australia (Flinders Medical Center). 27 patients were randomized into the first phase of the study, following which a DSMB meeting was held, which reviewed data on the primary study endpoint and key Raynaud's secondary endpoints. Data on the SHAQ was not available for the DSMB to review. The mITT population, in which any data was available post treatment was 24 patients was the analysis population for this first part of the study. The second part (i.e., part B) of the study will randomize 36 patients in a double blind, randomized, prospective, placebo controlled, crossover study. In the first part (i.e., Part A) of the study for which data is presented, patients were randomized into 6 groups, cilnidipine at two doses (10 and 20 mg) alone and in combination with tadalafil 5 mg, tadalafil 5 mg alone, and placebo. […] The DSMB recommended that the study proceed into its double blind prospective cross overpowered second phase and compare cilnidipine 20 mg alone to placebo.

COCCOC(=O)C1=C(C)NC(C)=C(C(=O)OC/C=C/c2ccccc2)C1c1cccc([N+](=O)[O-])c1 (stereo not shown) [Cilnidipine, cilnidipine]
SHAQ Overall Change in Severity, Percent Change from Baseline, Max: −26.8%
SHAQ Overall Change in Severity, Percent Change from Baseline, Mean (SD): −56.96 (38.271) %
SHAQ Overall Change in Severity, Percent Change from Baseline, Median: −44.12%
SHAQ Overall Change in Severity, Percent Change from Baseline, Min: −100.0%
SHAQ Overall Change in Severity, Percent Change from Baseline, Q1: −100.00%
SHAQ Overall Change in Severity, Percent Change from Baseline, Q3: −26.76%
SHAQ Standard disability index, Change from Baseline, Max: 0.00, 0.00
SHAQ Standard disability index, Change from Baseline, Mean (SD): 0.0 (0.0000)
SHAQ Standard disability index, Change from Baseline, Median: 0.000
SHAQ Standard disability index, Change from Baseline, Min: 0.00, 0.00
SHAQ Standard disability index, Change from Baseline, Q1: 0.000, 0.000
SHAQ Standard disability index, Change from Baseline, Q3: 0.000, 0.000
SHAQ Standard disability index, In Clinic Visit (Day 12), Max: 1.50
SHAQ Standard disability index, In Clinic Visit (Day 12), Mean (SD): 0.656 (0.7731)
SHAQ Standard disability index, In Clinic Visit (Day 12), Median: 0.563
SHAQ Standard disability index, In Clinic Visit (Day 12), Min: 0.00
SHAQ Standard disability index, In Clinic Visit (Day 12), Q1: 0.000
SHAQ Standard disability index, In Clinic Visit (Day 12), Q3: 1.313
SHAQ Standard disability index, Percent Change from Baseline, Max: 0.0, 0.0%
SHAQ Standard disability index, Percent Change from Baseline, Mean (SD): 0.0 (0.000) %
SHAQ Standard disability index, Percent Change from Baseline, Median: 0.00%
SHAQ Standard disability index, Percent Change from Baseline, Min: 0.0, 0.0%
SHAQ Standard disability index, Percent Change from Baseline, Q1: 0.00, 0.00%
SHAQ Standard disability index, Percent Change from Baseline, Q3: 0.00, 0.00%
SHAQ Visual Analog Scale-Breathing Problems, Change from Baseline, Max: 0.00
SHAQ Visual Analog Scale-Breathing Problems, Change from Baseline, Mean (SD): −0.300 (0.6000)
SHAQ Visual Analog Scale-Breathing Problems, Change from Baseline, Median: 0.000
SHAQ Visual Analog Scale-Breathing Problems, Change from Baseline, Min: −1.20
SHAQ Visual Analog Scale-Breathing Problems, Change from Baseline, Q1: −0.600
SHAQ Visual Analog Scale-Breathing Problems, Change from Baseline, Q3: 0.000
SHAQ Visual Analog Scale-Breathing Problems, In Clinic Visit (Day 12), Max: 6.30
SHAQ Visual Analog Scale-Breathing Problems, In Clinic Visit (Day 12), Mean (SD): 1.575 (3.1500)
SHAQ Visual Analog Scale-Breathing Problems, In Clinic Visit (Day 12), Median: 0.000
SHAQ Visual Analog Scale-Breathing Problems, In Clinic Visit (Day 12), Min: 0.00
SHAQ Visual Analog Scale-Breathing Problems, In Clinic Visit (Day 12), Q1: 0.000
SHAQ Visual Analog Scale-Breathing Problems, In Clinic Visit (Day 12), Q3: 3.150
SHAQ Visual Analog Scale-Breathing Problems, Percent Change from Baseline, Max: −16.0, −16.0%
SHAQ Visual Analog Scale-Breathing Problems, Percent Change from Baseline, Mean (SD): −16.00%
SHAQ Visual Analog Scale-Breathing Problems, Percent Change from Baseline, Median: −16.00%
SHAQ Visual Analog Scale-Breathing Problems, Percent Change from Baseline, Min: −16.0, −16.0%
SHAQ Visual Analog Scale-Breathing Problems, Percent Change from Baseline, Q1: −16.00, −16.00%
SHAQ Visual Analog Scale-Breathing Problems, Percent Change from Baseline, Q3: −16.00, −16.00%
SHAQ Visual Analog Scale-Intestinal Problems, Change from Baseline, Max: 0.00
SHAQ Visual Analog Scale-Intestinal Problems, Change from Baseline, Mean (SD): −1.875 (2.1838)
SHAQ Visual Analog Scale-Intestinal Problems, Change from Baseline, Median: −1.550
SHAQ Visual Analog Scale-Intestinal Problems, Change from Baseline, Min: −4.40
SHAQ Visual Analog Scale-Intestinal Problems, Change from Baseline, Q1: −3.700
SHAQ Visual Analog Scale-Intestinal Problems, Change from Baseline, Q3: −0.050
SHAQ Visual Analog Scale-Intestinal Problems, In Clinic Visit (Day 12), Max: 3.80
SHAQ Visual Analog Scale-Intestinal Problems, In Clinic Visit (Day 12), Mean (SD): 1.100 (1.8221)
SHAQ Visual Analog Scale-Intestinal Problems, In Clinic Visit (Day 12), Median: 0.300
SHAQ Visual Analog Scale-Intestinal Problems, In Clinic Visit (Day 12), Min: 0.00
SHAQ Visual Analog Scale-Intestinal Problems, In Clinic Visit (Day 12), Q1: 0.000
SHAQ Visual Analog Scale-Intestinal Problems, In Clinic Visit (Day 12), Q3: 2.200
SHAQ Visual Analog Scale-Intestinal Problems, Percent Change from Baseline, Max: −44.1%
SHAQ Visual Analog Scale-Intestinal Problems, Percent Change from Baseline, Mean (SD): −77.37 (29.418) %
SHAQ Visual Analog Scale-Intestinal Problems, Percent Change from Baseline, Median: −88.00%
SHAQ Visual Analog Scale-Intestinal Problems, Percent Change from Baseline, Min: −100.0%
SHAQ Visual Analog Scale-Intestinal Problems, Percent Change from Baseline, Q1: −100.00%
SHAQ Visual Analog Scale-Intestinal Problems, Percent Change from Baseline, Q3: −44.12%
SHAQ Visual Analog Scale-Pain, Change from Baseline, Max: 0.30
SHAQ Visual Analog Scale-Pain, Change from Baseline, Mean (SD): −0.100 (0.4243)
SHAQ Visual Analog Scale-Pain, Change from Baseline, Median: 0.000
SHAQ Visual Analog Scale-Pain, Change from Baseline, Min: −0.70
SHAQ Visual Analog Scale-Pain, Change from Baseline, Q1: −0.350
SHAQ Visual Analog Scale-Pain, Change from Baseline, Q3: 0.150
SHAQ Visual Analog Scale-Pain, In Clinic Visit (Day 12), Max: 3.60
SHAQ Visual Analog Scale-Pain, In Clinic Visit (Day 12), Mean (SD): 1.875 (1.6641)
SHAQ Visual Analog Scale-Pain, In Clinic Visit (Day 12), Median: 1.950
SHAQ Visual Analog Scale-Pain, In Clinic Visit (Day 12), Min: 0.00
SHAQ Visual Analog Scale-Pain, In Clinic Visit (Day 12), Q1: 0.500
SHAQ Visual Analog Scale-Pain, In Clinic Visit (Day 12), Q3: 3.250
SHAQ Visual Analog Scale-Pain, Percent Change from Baseline, Max: 11.5%
SHAQ Visual Analog Scale-Pain, Percent Change from Baseline, Mean (SD): −9.88 (27.711) %
SHAQ Visual Analog Scale-Pain, Percent Change from Baseline, Median: 0.00%
SHAQ Visual Analog Scale-Pain, Percent Change from Baseline, Min: −41.2%
SHAQ Visual Analog Scale-Pain, Percent Change from Baseline, Q1: −41.18%
SHAQ Visual Analog Scale-Pain, Percent Change from Baseline, Q3: 11.54%
SHAQ Visual Analog Scale-Raynaud's, Change from Baseline, Max: 1.50
SHAQ Visual Analog Scale-Raynaud's, Change from Baseline, Mean (SD): 0.325 (1.0468)
SHAQ Visual Analog Scale-Raynaud's, Change from Baseline, Median: 0.350
SHAQ Visual Analog Scale-Raynaud's, Change from Baseline, Min: −0.90
SHAQ Visual Analog Scale-Raynaud's, Change from Baseline, Q1: −0.500
SHAQ Visual Analog Scale-Raynaud's, Change from Baseline, Q3: 1.150
SHAQ Visual Analog Scale-Raynaud's, In Clinic Visit (Day 12), Max: 4.30
